≈ marks a conversion by molar mass, not a printed value.
Legend:
Trypanosoma cruzi [1] = assay: Antitrypanosomal activity against Trypanosoma cruzi tulahuen 2 after 5 days; assay type: functional; settings: tulahuen 2, 120 h, read-out: ID50 (the source's name)
Trypanosoma cruzi [2] = assay: Increase in squalene biosynthesis in Trypanosoma cruzi tulahuen 2 epimastigotes at ID50 concentration per 8 x 10^6 cells/ml after 120 mins by HPLC analysis (Rvb=0.6 to 2.1 ug/ml); assay type: functional
Trypanosoma cruzi [3] = assay: Decrease in ergosterol biosynthesis in Trypanosoma cruzi tulahuen 2 epimastigotes at ID50 concentration per 8 x 10^6 cells/ml after 120 mins by HPLC analysis (Rvb=6.8 +/- 0.5 ug/ml); assay type: functional
Aspergillus fumigatus = assay: Antifungal activity against Aspergillus fumigatus ATCC 26934 after 48 hrs by broth microdilution technique; assay type: functional; settings: ATCC 26934, 48 h
[4] = tested on: Trichophyton mentagrophytes; assay: Antifungal activity against Trichophyton mentagrophytes ATCC 9972 after 48 hrs by broth microdilution technique; assay type: functional; settings: ATCC 9972, 48 h
Trichophyton rubrum = assay: Antifungal activity against Trichophyton rubrum C113 after 48 hrs by broth microdilution technique; assay type: functional; settings: C113, 48 h
Aspergillus niger = assay: Antifungal activity against Aspergillus niger ATCC 9029 after 48 hrs by broth microdilution technique; assay type: functional; settings: ATCC 9029, 48 h
Candida tropicalis = assay: Antifungal activity against Candida tropicalis C131-2000 after 48 hrs by broth microdilution technique; assay type: functional; settings: C131-2000, 48 h
Nannizzia gypsea = assay: Antifungal activity against Microsporum gypseum C 115 after 48 hrs by broth microdilution technique; assay type: functional; settings: C 115, 48 h
Cryptococcus neoformans = assay: Antifungal activity against Cryptococcus neoformans ATCC 32264 after 48 hrs by broth microdilution technique; assay type: functional; settings: ATCC 32264, 48 h
Aspergillus flavus = assay: Antifungal activity against Aspergillus flavus ATCC 9170 after 48 hrs by broth microdilution technique; assay type: functional; settings: ATCC 9170, 48 h
Saccharomyces cerevisiae = assay: Antifungal activity against Saccharomyces cerevisiae ATCC 9763 after 48 hrs by broth microdilution technique; assay type: functional; settings: ATCC 9763, 48 h
[5] = Cytotoxicity against mouse J774 cells after 48 hrs by MTT assay; assay type: cell-based; settings: read-out: ID50
[6] = Selectivity index, ratio of IC50 for mouse J774 cells to ID50 for Trypanosoma cruzi tulahuen 2; assay type: toxicity, cell-based; settings: J774 cells versus Trypanosoma cruzi Tulahuen 2, read-out: Selectivity Index
Candida albicans = assay: Antifungal activity against Candida albicans ATCC 10231 after 48 hrs by broth microdilution technique; assay type: functional; settings: ATCC 10231, 48 h
Trypanosoma cruzi [7] = assay: Antitrypanosomal activity against Trypanosoma cruzi CL Brener after 5 days; assay type: functional; settings: 120 h, read-out: ID50 (the source's name)
Trypanosoma cruzi [8] = assay: Ratio of ID50 for drug to ID50 for nifurtimox against Trypanosoma cruzi tulahuen 2 after 5 days; assay type: functional

Structure (SMILES) | IC50 (Trypanosoma cruzi [1]) [µM] | Activity (Trypanosoma cruzi [2]) [µg/mL] | Activity (Trypanosoma cruzi [3]) [µg/mL] | MIC (Aspergillus fumigatus) [µg/mL] | MIC [4] [µg/mL] | MIC (Trichophyton rubrum) [µg/mL] | MIC (Aspergillus niger) [µg/mL] | MIC (Candida tropicalis) [µg/mL] | MIC (Nannizzia gypsea) [µg/mL] | MIC (Cryptococcus neoformans) [µg/mL] | MIC (Aspergillus flavus) [µg/mL] | MIC (Saccharomyces cerevisiae) [µg/mL] | CC50 at 48 h [5] [µM] | selectivity ratio [6] | MIC (Candida albicans) [µg/mL] | IC50 (Trypanosoma cruzi [7]) [µM] | Ratio (Trypanosoma cruzi [8])
O=C(/C=C/c1ccco1)N1CCN(C/C=C/c2ccccc2)CC1 | > 25 | 0.6 | – | – | – | – | – | – | – | – | – | – | – | – | – | – | –
O=C(/C=C/c1ccc([N+](=O)[O-])o1)NCCO | 5 | 0.6 | – | – | – | – | – | – | – | – | – | – | – | – | – | – | –
C=CCNC(=S)N/N=C/C=C/c1ccc([N+](=O)[O-])o1 | 8.2 | 15.9 | 5.5 | > 250 | > 250 | > 250 | > 250 | > 250 | > 250 | > 250 | > 250 | > 250 | 200 | 24.4 | > 250 | 6.4 | –
O=C(/C=C/c1ccc([N+](=O)[O-])o1)N1CCN(C/C=C/c2ccccc2)CC1 | 1 | 0.6 | – | – | – | – | – | – | – | – | – | – | – | – | – | – | 7
C[C@@H]1[C@H](O)[C@@H](C)/C=C/C=C/C=C/C=C/C=C/C=C/C=C/[C@H](O[C@@H]2O[C@H](C)[C@@H](O)[C@H](N)[C@@H]2O)C[C@@H]2O[C@](O)(C[C@@H](O)C[C@@H](O)[C@H](O)CC[C@@H](O)C[C@@H](O)CC(=O)O[C@H]1C)C[C@H](O)[C@H]2C(=O)O [AMPHOTERICIN B] | – | – | – | 0.5 (≈ 0.541 µM) | 0.025 (≈ 0.0271 µM) | 0.025 (≈ 0.0271 µM) | 0.125 (≈ 0.135 µM) | 0.5 (≈ 0.541 µM) | 0.05 (≈ 0.0541 µM) | 0.25 (≈ 0.271 µM) | 0.25 (≈ 0.271 µM) | 0.5 (≈ 0.541 µM) | – | – | 0.5 (≈ 0.541 µM) | – | –
CC(=O)N1CCN(c2ccc(OCC3COC(Cn4ccnc4)(c4ccc(Cl)cc4Cl)O3)cc2)CC1 (configuration not stated) [KETOCONAZOLE] | – | – | – | 0.78 (≈ 1.47 µM) | 0.025 (≈ 0.047 µM) | 0.01 (≈ 0.0188 µM) | 0.78 (≈ 1.47 µM) | 1.56 (≈ 2.94 µM) | 0.04 (≈ 0.0753 µM) | 0.39 (≈ 0.734 µM) | 1.56 (≈ 2.94 µM) | 3.12 (≈ 5.87 µM) | < 100 | < 10 | 1.56 (≈ 2.94 µM) | – | –
CC1CS(=O)(=O)CCN1/N=C/c1ccc([N+](=O)[O-])o1 (configuration not stated) [NIFURTIMOX] | – | 0.6 | – | – | – | – | – | – | – | – | – | – | 316 | 41 | – | – | –
CN(C/C=C/C#CC(C)(C)C)Cc1cccc2ccccc12 [TERBINAFINE] | – | 12 | 2.7 | 0.5 (≈ 1.72 µM) | 0.075 (≈ 0.257 µM) | 0.075 (≈ 0.257 µM) | 0.5 (≈ 1.72 µM) | 1.56 (≈ 5.35 µM) | 0.125 (≈ 0.429 µM) | 0.25 (≈ 0.858 µM) | 0.5 (≈ 1.72 µM) | 0.5 (≈ 1.72 µM) | 339 | 19.9 | 0.78 (≈ 2.68 µM) | – | –
